Test results as given in article PMC11251039, “Harnessing cholesterol uptake of malaria parasites for therapeutic applications” (EMBO Molecular Medicine, 2024).
Several values for one entry are separate records, joined by “and”; a condition that tells them apart may be missing. Identical values can stand only once. Like-named read-outs stand apart in the source and are kept apart here.

What was measured:
[1] = tested on: asexual P. falciparum 3D7 wild-type parasites; assay: P. falciparum asexual growth inhibition assay (SYBR Safe DNA replication); format: cell-based, Plasmodium falciparum; details: for P. falciparum asexual growth, percentage of control: replicate values, source data Fig. 2B, listed as HJB8a53; for IC50: Plasmodium falciparum, read-out: IC50, P. falciparum asexual growth inhibition
Procedure, shortened: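 Sorbitol-synchronised ring-stage cultures at 1% parasitaemia and 1% haematocrit were exposed to 2-fold compound dilutions at 37 °C under microaerophilic conditions for 24, 48 or 72 h. Growth was read by SYBR Safe fluorescence of freeze-thaw lysates, with 200 nM chloroquine or artesunate defining background.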

[2] = tested on: human hepatoma cells (Huh7); assay: Human hepatoma viability assay (CellTiter-Blue); format: cell-based; details: for Huh7 viability, dose-response data points (Figure 3F): replicate data points
Experimental: Huh7 hepatoma viability assays were conducted in the same manner as the P. berghei assays, with metabolic capacity (indicating viability) measured with a fluorescence microplate reader after incubation with CellTiter-Blue® (Promega) for 3 h.
Appendix Fraser/Curtis et al. […]
Human Hepatoma Viability Assays:
The Huh7 hepatoma cell line (ATCC) was maintained under routine culture conditions in Dulbecco's Modified Eagle Medium (DMEM) containing 3.7 g/L NaHCO3 supplemented with 10% foetal bovine serum (FBS), 100 units/mL penicillin, and 100 μg/mL streptomycin at 37 °C in a humidified 5% CO2 incubator.
Viability assays were performed in parallel to the P. berghei growth inhibition. 10,000 Huh7 cells were seeded in 96-well and dark-sided microplates (Greiner Bio One) and cultured at 37°C, 5% CO2 and 80% humidity. The next day, the media was replaced with compounds or solvent controls (DMSO) serially diluted in culture media. Media was partially replaced with new drug dilutions over the following two days. After 48 hours, CellTiter-Blue® (Promega) was added according to the manufacturer’s instructions and incubated for 3 hours. Fluorescence intensity was measured with 530/25 ex and 590/20 em in a Synergy HTX plate reader (Agilent).

[3] = tested on: P. falciparum stage III–IV gametocytes; assay: P. falciparum gametocyte viability assay (MitoTracker, flow cytometry), stage III-IV; format: cell-based, Plasmodium falciparum; details: 48 h; for Gametocyte stage III-IV viability, percentage of control: replicate values, source data Fig. 2C
Experimental: Gametocyte assays commenced seven days (stage III–IV) or ten days (stage V) post-invasion. […]
Plasmodium falciparum Gametocyte Viability Assays:
Asexual P. falciparum parasites were induced to form gametocytes as described (21).
Synchronized trophozoite-stage parasites at 2% parasitaemia were incubated overnight and […]
haematocrit maintained at 4%. On the subsequent day (designated as day 0) of gametocytogenesis, the culture containing early ring-stage parasites was first purified by sorbitol synchronisation to remove asynchronous trophozoites, and passed through a magnetic field in a sterile MACS® column in a SuperMACSTM II magnet to remove remaining late-stage parasites or later-stage gametocytes (negative selection). The culture medium was supplemented with 50 mM N-acetyl-D-glucosamine to inhibit asexual parasite proliferation, and changed daily. Sorbitol treatment was performed on Day 1, 5, and 6 to further remove asexual parasites. Gametocytes were magnetically enriched (positive selection) in a sterile column with a SuperMACSTM II magnet and eluted in culture media with 50 mM N-acetyl-D-glucosamine. These gametocytes were incubated overnight at 37 °C under microaerophilic conditions, and purity was assessed by examination under a light microscope (400× […]
Gametocyte viability was assessed as described by Ridgway et al. (21) with modifications.
Compounds or solvent controls (DMSO) were serially diluted across 96-well plates in culture media supplemented with 50 mM N-acetyl-D-glucosamine. Culture media without compound was used as a negative control. […]
control to determine background gametocyte fluorescence. Stage III-IV gametocytes (Day 7) or stage V (day 10) gametocytes were concentrated and added to the plate with 200 µL per well. The plate was incubated for 48 hours at 37 °C under humid microaerophilic conditions.
Parasites were then stained with 500 nM MitoTrackerTM Deep Red FM and 5 μg/ml Hoechst […]
cytometer as described above. […]
excluded. Live (positive) and dead (negative) gametocytes were differentiated by […]
percentage of each was calculated. […]

[4] = 100.000000000 uM, listed as HJB8a53, 100 µM

CC(C)OC(=O)CCC(=O)O[C@H]1CC[C@H]2[C@@H]3CC=C4C[C@@H](O)CC[C@]4(C)[C@H]3CC[C@]12C [C-17-link]
P. falciparum asexual growth, percentage of control ([1]; 1.562500000 uM, 24 h): 108.2% and 98.65% and 104.4% and 77.73% and 107.4% and 72.24% and 105.4% and 89.91% and 101.4%
P. falciparum asexual growth, percentage of control ([1]; 3.125000000 uM, 24 h): 87.28% and 79.93% and 102.9% and 88.97% and 110.9% and 91.2% and 98.89% and 92.59% and 99.55%
P. falciparum asexual growth, percentage of control ([1]; 6.250000000 uM, 24 h): 91.48% and 91.92% and 90.32% and 56.7% and 84% and 91.24% and 89.81% and 87.22% and 88.93%
P. falciparum asexual growth, percentage of control ([1]; 12.500000000 uM, 24 h): 92.85% and 68.5% and 79.1% and 86.73% and 62.26% and 77.95% and 77.18% and 79.4% and 77.07%
P. falciparum asexual growth, percentage of control ([1]; 25.000000000 uM, 24 h): 63.84% and 71.98% and 51.99% and 71.68% and 75.89% and 90.82% and 60.89% and 60.24% and 75.04%
P. falciparum asexual growth, percentage of control ([1]; 50.000000000 uM, 24 h): 21.83% and 36.37% and 18.23% and 26.53% and 42.29% and 44.3% and 28.27% and 41.39% and 35.03%
P. falciparum asexual growth, percentage of control ([1]; 100.000000000 uM, 24 h): 3.756% and 9.306% and -2.555% and -31.33% and 5.372% and 1.633% and -19.35% and 8.501% and 11.78%
IC50 ([1]; 3D7, 24 h, 24 h, starting at ring stages): 31.6 µM
IC50 ([1]; 3D7, 48 h, 48 h): 40.2 µM
IC50 ([1]; 3D7, 72 h, 72 h): 30.3 µM
Huh7 viability, dose-response data points (Figure 3F) ([2]; 0.015241580 uM, listed as HJB8a53, 0.0152416 µM): 105.5 and 101.4 and 96.09 and 69.59 and 87 and 84.06 and 99.27 and 98.63 and 104.2
Huh7 viability, dose-response data points (Figure 3F) ([2]; 0.045724740 uM, listed as HJB8a53, 0.0457247 µM): 109.3 and 93.77 and 96.82 and 77.36 and 91.83 and 83.31 and 95.97 and 106.5 and 102.9
Huh7 viability, dose-response data points (Figure 3F) ([2]; 0.137174210 uM, listed as HJB8a53, 0.137174 µM): 96.08 and 92.35 and 97.06 and 75.41 and 90.39 and 89.79 and 95.73 and 112.9 and 104.7
Huh7 viability, dose-response data points (Figure 3F) ([2]; 0.411522630 uM, listed as HJB8a53, 0.411523 µM): 96.93 and 97.72 and 96.92 and 63.65 and 105.3 and 104.5 and 106.5 and 105.9 and 105.2
Huh7 viability, dose-response data points (Figure 3F) ([2]; 1.234567900 uM, listed as HJB8a53, 1.23457 µM): 100.4 and 99.21 and 88.68 and 67.97 and 84.85 and 96.13 and 101.8 and 95.29 and 104.3
Huh7 viability, dose-response data points (Figure 3F) ([2]; 3.703703700 uM, listed as HJB8a53, 3.7037 µM): 100.3 and 96.61 and 91.24 and 63.53 and 95.92 and 87.81 and 99.75 and 109.9 and 102.3
Huh7 viability, dose-response data points (Figure 3F) ([2]; 11.111111100 uM, listed as HJB8a53, 11.1111 µM): 99.33 and 105.1 and 91.64 and 77.62 and 94.71 and 84.32 and 94.43 and 111.6 and 102.6
Huh7 viability, dose-response data points (Figure 3F) ([2]; 33.333333300 uM, listed as HJB8a53, 33.3333 µM): 96.9 and 100.5 and 93.64 and 75.36 and 80.99 and 87.75 and 88.68 and 89.18 and 95.7
Huh7 viability, dose-response data points (Figure 3F) [2, 4]: 79.4 and 72.92 and 76.08 and 55.81 and 65.46 and 66.75 and 56.01 and 61.1 and 53.13
Cytotoxicity to human hepatoma cells ([2]; 48 h, up to 100 µM): only modest cytotoxicity at high concentrations (>30 µM)
IC50 ([2]; Homo sapiens, Huh-7, 48 h, read-out: IC50, human hepatoma inhibition (viability)): > 100 µM
Gametocyte stage III-IV viability, percentage of control ([3]; 1.562500000 uM, listed as HJB8a53, 1.5625 µM): 101% and 107% and 102.8% and 99.18% (2×) and 99.4% and 102.9% and 101.9% and 93.96% and 97.92% and 98.49%
Gametocyte stage III-IV viability, percentage of control ([3]; 3.125000000 uM, listed as HJB8a53, 3.125 µM): 105.6% and 102% and 105.7% and 98.51% and 101.4% and 101.9% (2×) and 99.18% and 90.27% and 91.12% and 94.52%
Gametocyte stage III-IV viability, percentage of control ([3]; 6.250000000 uM, listed as HJB8a53, 6.25 µM): 99.6% and 103.8% and 106.8% and 101.2% and 104.3% and 103.3% and 101% and 100.8% and 93.96% and 96.79% and 98.77%
Gametocyte stage III-IV viability, percentage of control ([3]; 12.500000000 uM, listed as HJB8a53, 12.5 µM): 107.8% and 104% and 107.2% and 101.4% and 104.1% (2×) and 102.9% and 101% and 94.24% and 97.07% and 99.62%
Gametocyte stage III-IV viability, percentage of control ([3]; 25.000000000 uM, listed as HJB8a53, 25 µM): 98.8% and 98.2% and 107.2% and 103.9% and 105.9% and 102.5% and 102.3% and 103.5% and 88.86% and 88.57% and 89.42%
Gametocyte stage III-IV viability, percentage of control ([3]; 50.000000000 uM, listed as HJB8a53, 50 µM): 91.61% and 97.2% and 99.4% and 103.4% and 99.63% and 101% and 91.35% and 89.5% and 90.53% and 84.89% and 81.49% and 79.23%
Gametocyte stage III-IV viability, percentage of control [3, 4]: 87.57% and 87.36% and 83.7% and 97.18% and 90.82% and 86.32% and 9.91% and 5.752% and 9.494% and 21.99% and 34.89% and 34.32%
viability at 1.5625 µM ([3]; Plasmodium falciparum, read-out: Gametocyte stage III-IV viability, percentage of control, 1.562500000 uM, 48 h, replicate values, source data Fig. 2C): 94.6%
viability at 3.125 µM ([3]; Plasmodium falciparum, read-out: Gametocyte stage III-IV viability, percentage of control, 3.125000000 uM, 48 h, replicate values, source data Fig. 2C): 94.6%
viability at 6.25 µM ([3]; Plasmodium falciparum, read-out: Gametocyte stage III-IV viability, percentage of control, 6.250000000 uM, 48 h, replicate values, source data Fig. 2C): 98.6%
viability at 12.5 µM ([3]; Plasmodium falciparum, read-out: Gametocyte stage III-IV viability, percentage of control, 12.500000000 uM, 48 h, replicate values, source data Fig. 2C): 99.8%
viability at 25 µM ([3]; Plasmodium falciparum, read-out: Gametocyte stage III-IV viability, percentage of control, 25.000000000 uM, 48 h, replicate values, source data Fig. 2C): 92.6%
IC50 ([3]; Plasmodium falciparum, read-out: IC50, P. falciparum gametocyte stage III-IV inhibition, 48 h): > 100 µM
